The values that follow are results of earlier work, collected in US3959464A, “Microencapsulated methyl and ethyl parathion insecticide in aqueous carrier” (Pennwalt Corporation, priority 1971, dated 1976).

For data set [1] the following is noted: for effect of moisture (hydrolysis): contacted by moisture; for degradation in the field: hydrolysis and oxidation reactions.
The test system of data set [2] is food crops. The settings on record: unmodified, unencapsulated.
In data set [3] the test system is insects. The settings on record: ordinary methods of application.

As for `CCOP(=S)(OCC)Oc1ccc([N+](=O)[O-])cc1` [ethyl parathion, O,O-diethyl-O-p-nitrophenol phosphorothioate], in data set [1], the “effect of moisture (hydrolysis)” value is recorded as “rendered ineffectual by hydrolysis when contacted by moisture” and the “degradation in the field” value is reported as “rapid degradation in the field”. The phytotoxicity result in data set [2] is reported as “chemical phytotoxicity to various food crops”. Moreover, the “period of pesticidal effectiveness in the field” value in data set [3] is listed as “only several days”.

For `COP(=S)(OC)Oc1ccc([N+](=O)[O-])cc1` [methyl parathion, O,O-dimethyl-O-p-nitrophenol phosphorothioate], in data set [1], the “effect of moisture (hydrolysis)” value was “rendered ineffectual by hydrolysis when contacted by moisture” and the “degradation in the field” value was “rapid degradation in the field”. Further, in data set [2], the phytotoxicity result is “chemical phytotoxicity to various food crops”. Moreover, the “period of pesticidal effectiveness in the field” value in data set [3] is reported as “only several days”.
